Consider two molecules from ChEMBL document CHEMBL4177564, “Pyrrolo[2,1-f][1,2,4]triazines: From C-nucleosides to kinases and back again, the remarkable journey of a versatile nitrogen heterocycle” (Bioorg Med Chem Lett, 2017).

Test [1] addresses Potassium voltage-gated channel subfamily A member 5 (Homo sapiens) (UniProt P22460). The test is described as follows: Inhibition of human Kv1.5 expressed in mouse L929 cells assessed as reduction in channel current at 0.3 uM by patch clamp method relative to control. Type of test: cell-based. (In patch-clamp work, channel activity is measured electrically.)
Test [2] addresses Ubiquitin carboxyl-terminal hydrolase 7 (Homo sapiens, UniProt Q93009). Nature of the test: Inhibition of His6-tagged USP7 (208 to 1102 residues) (unknown origin) using ubiquitin-rhodamine110 as substrate preincubated for 30 mins followed by substrate addition measured after 20 mins by fluorescence assay.

For orientation: inhibition means the percentage by which the read-out fell short of the control. The IC50 is the concentration that gives 50% inhibition. The low end stands for higher potency, the high end for lower potency.

Some results are limits rather than exact numbers.

Chain of Ubiquitin carboxyl-terminal hydrolase 7 (Q93009 whole entry, the tested form may be a part): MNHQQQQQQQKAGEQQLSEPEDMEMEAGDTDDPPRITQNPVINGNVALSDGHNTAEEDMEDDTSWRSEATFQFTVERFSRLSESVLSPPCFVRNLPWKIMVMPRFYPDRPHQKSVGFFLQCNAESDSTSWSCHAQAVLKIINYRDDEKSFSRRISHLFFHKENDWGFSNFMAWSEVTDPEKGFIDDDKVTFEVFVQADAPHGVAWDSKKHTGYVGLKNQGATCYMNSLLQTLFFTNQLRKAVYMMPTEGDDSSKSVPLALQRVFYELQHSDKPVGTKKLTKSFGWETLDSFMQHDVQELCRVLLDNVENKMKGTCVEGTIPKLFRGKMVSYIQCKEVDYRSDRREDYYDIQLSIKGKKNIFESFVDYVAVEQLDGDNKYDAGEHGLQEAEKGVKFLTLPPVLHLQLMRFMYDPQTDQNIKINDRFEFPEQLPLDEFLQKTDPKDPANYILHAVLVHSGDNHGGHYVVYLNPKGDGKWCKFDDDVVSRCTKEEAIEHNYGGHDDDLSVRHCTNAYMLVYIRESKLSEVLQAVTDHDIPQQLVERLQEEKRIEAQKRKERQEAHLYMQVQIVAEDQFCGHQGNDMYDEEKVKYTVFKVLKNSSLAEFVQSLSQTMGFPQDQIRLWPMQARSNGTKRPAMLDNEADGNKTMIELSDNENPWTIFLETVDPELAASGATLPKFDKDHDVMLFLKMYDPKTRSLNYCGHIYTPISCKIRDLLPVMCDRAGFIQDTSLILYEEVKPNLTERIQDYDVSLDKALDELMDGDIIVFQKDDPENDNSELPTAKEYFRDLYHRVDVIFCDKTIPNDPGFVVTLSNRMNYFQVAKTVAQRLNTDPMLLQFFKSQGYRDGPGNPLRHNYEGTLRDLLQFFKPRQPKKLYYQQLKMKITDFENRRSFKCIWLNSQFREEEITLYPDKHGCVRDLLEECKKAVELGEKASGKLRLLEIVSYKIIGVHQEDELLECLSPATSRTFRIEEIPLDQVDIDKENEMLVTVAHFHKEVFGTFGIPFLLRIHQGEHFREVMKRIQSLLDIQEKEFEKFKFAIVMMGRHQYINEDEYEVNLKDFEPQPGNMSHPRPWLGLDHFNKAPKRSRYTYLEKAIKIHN
Chain of Potassium voltage-gated channel subfamily A member 5 (Homo sapiens) (P22460 whole entry, the tested form may be a part): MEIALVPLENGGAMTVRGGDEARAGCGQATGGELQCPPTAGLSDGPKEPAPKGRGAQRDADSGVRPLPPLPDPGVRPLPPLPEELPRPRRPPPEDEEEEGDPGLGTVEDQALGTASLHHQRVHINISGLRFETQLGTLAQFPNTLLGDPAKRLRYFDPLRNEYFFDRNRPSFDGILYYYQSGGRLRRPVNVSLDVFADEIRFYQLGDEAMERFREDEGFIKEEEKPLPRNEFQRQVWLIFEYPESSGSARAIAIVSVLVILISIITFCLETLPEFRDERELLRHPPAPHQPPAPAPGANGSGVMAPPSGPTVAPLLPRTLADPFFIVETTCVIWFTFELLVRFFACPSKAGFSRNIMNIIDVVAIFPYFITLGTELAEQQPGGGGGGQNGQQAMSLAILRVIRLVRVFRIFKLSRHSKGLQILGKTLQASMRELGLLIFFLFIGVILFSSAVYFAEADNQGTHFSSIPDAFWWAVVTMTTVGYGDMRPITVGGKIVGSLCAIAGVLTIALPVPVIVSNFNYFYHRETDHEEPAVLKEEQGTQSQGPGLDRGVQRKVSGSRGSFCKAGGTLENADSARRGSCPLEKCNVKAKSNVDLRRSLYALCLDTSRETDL

With `NS(=O)(=O)c1cncc(-c2nc(NCc3ccccc3)c3c(-c4ccccc4)ccn3n2)c1`, in test [1], the inhibition is more than 95%.

The molecule `C[C@H](CC(=O)N1CCC(O)(Cn2cnn3cccc3c2=O)CC1)c1ccccc1` registered an IC50 in test [2] of less than 200 nM.
